In ChEMBL document CHEMBL3627707, “Incorporation of metabolically stable ketones into a small molecule probe to increase potency and water solubility” (Bioorg Med Chem Lett, 2015):
In brackets after ≈: the same amount, converted by molar mass. Activity calls are given as the source filed them. The rule behind the calls is not given here.

Key:
[1] = Solubility of compound in water; type: physicochemical; conditions: buffer
[2] = (§1) Half life in mouse liver microsomes by LC-MS/MS analysis; type: ADME; conditions: liver microsomes
[3] = tested on: DRD; assay: Growth inhibition of human RAS-G12V overexpressing DRD cells after 48 hrs by alamar blue assay; type: functional, cell-based
[4] = tested on: Plasma; assay: Stability in mouse plasma at 500 ng/ml measured upto 120 mins; type: ADME, cell-free; conditions: 2 h
[5] = Metabolic stability in mouse liver microsomes assessed as compound remaining after 45 mins by LC-MS/MS analysis; type: ADME; conditions: read-out: Stability
[6] = Metabolic stability in mouse liver microsomes assessed as compound remaining after 30 mins by LC-MS/MS analysis; type: ADME; conditions: read-out: Stability
[7] = Metabolic stability in mouse liver microsomes assessed as compound remaining after 15 mins by LC-MS/MS analysis; type: ADME; conditions: read-out: Stability
[8] = Metabolic stability in mouse liver microsomes assessed as compound remaining after 5 mins by LC-MS/MS analysis; type: ADME; conditions: for remaining at 5 min: liver microsomes, read-out: Stability; for Stability: microsomes, 5 min
[9] = Growth inhibition of human HT1080 cells after 48 hrs by alamar blue assay; type: functional; conditions: HT-1080, 48 h
[10] = tested on: Liver; assay: as §1; type: ADME; conditions: microsomes
[11] = Growth inhibition of human RAS-G12V overexpressing BJeLR cells; type: functional
[12] = Selectivity ratio of IC50 for human BJeH cells to IC50 for human RAS-G12V overexpressing BJeLR cells; type: ADME, cell-based; conditions: BJeH cells and RAS-G12V overexpressing BJeLR cells, read-out: Ratio IC50
[13] = Growth inhibition of human RAS-G12V overexpressing BJeLR cells after 48 hrs by alamar blue assay; type: functional, cell-based
[14] = target: T1, Cystine/glutamate transporter (Homo sapiens, UniProt Q9UPY5); assay: Inhibition of Xct in human CCF-STTG1 cells assessed as glutamate release after 2 hrs by fluorometry; type: cell-based
T1 sequence (Q9UPY5 whole entry): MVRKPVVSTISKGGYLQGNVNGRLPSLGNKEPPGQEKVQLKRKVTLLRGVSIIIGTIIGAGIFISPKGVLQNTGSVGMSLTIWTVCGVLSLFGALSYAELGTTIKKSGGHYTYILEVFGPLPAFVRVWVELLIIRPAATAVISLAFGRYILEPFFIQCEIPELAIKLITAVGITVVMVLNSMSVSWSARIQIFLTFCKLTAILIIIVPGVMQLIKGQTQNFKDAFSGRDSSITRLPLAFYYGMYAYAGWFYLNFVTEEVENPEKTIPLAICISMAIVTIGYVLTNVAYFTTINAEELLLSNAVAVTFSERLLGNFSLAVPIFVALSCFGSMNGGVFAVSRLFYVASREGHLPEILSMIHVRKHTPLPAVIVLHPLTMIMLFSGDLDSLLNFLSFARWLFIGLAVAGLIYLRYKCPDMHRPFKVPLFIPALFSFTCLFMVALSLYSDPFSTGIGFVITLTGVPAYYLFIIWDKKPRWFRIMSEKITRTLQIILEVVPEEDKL

Row | Structure (SMILES) | solubility [1] [µM] | half-life [2] [min] | inhibition [3] | Stability [4] | remaining at 0.75 h [5] [%] | remaining at 0.5 h [6] [%] | remaining at […] [7] [%] | remaining at 5 min [8] [%] | GI50 [9] [nM] | t1/2 [10] [min] | Stability [8] [%] | GI50 [11] [nM] | selectivity ratio [12] | IC50 [13] [nM] | IC50 [14] [nM]
1 | CCOc1ccccc1-n1c(C(C)N2CCN(C(=O)COc3ccc(Cl)cc3)CC2)nc2ccccc2c1=O (stereo unspecified) [ERASTIN] | 90 (≈ 49.2 µg/mL) | < 5 | Active | – | – | – | – | – | – | – | – | – | – | – | –
2 | CC(C)Oc1ccc(C(=O)CN2CCNCC2)cc1-n1c(CN2CCN(C(=O)COc3ccc(Cl)cc3)CC2)nc2ccccc2c1=O | – | – | – | Stable | 76.9 | 76.2 | 94.7 | 87.4 | 550 | – | – | – | – | – | –
3 | CC(C)Oc1ccc(C(=O)CF)cc1-n1c(CN2CCN(C(=O)COc3ccc(Cl)cc3)CC2)nc2ccccc2c1=O | – | – | Active | – | 0 | 0 | 0 | – | – | 4.7 | 15.5 | – | – | – | –
4 | CC(C)Oc1ccc(C=O)cc1-n1c(CN2CCN(C(=O)COc3ccc(Cl)cc3)CC2)nc2ccccc2c1=O | 80 (≈ 46 µg/mL) | – | – | – | – | – | – | – | – | – | – | 8 | 15 | 8 | –
5 | CC(C)Oc1ccc(C(=O)Cn2ccnc2)cc1-n1c(CN2CCN(C(=O)COc3ccc(Cl)cc3)CC2)nc2ccccc2c1=O | – | 78.5 | Active | Stable | 64.1 | 75.4 | 82.9 | 89.3 | 314 | – | – | – | 42 | 3 | –
6 | CC(C)Oc1ccc(C(=O)CN2CCOCC2)cc1-n1c(CN2CCN(C(=O)COc3ccc(Cl)cc3)CC2)nc2ccccc2c1=O | – | – | Active | – | 21.2 | 30.6 | 53.2 | 83.8 | – | – | – | – | 5 | 427 | –
7 | CC(=O)c1ccc(OC(C)C)c(-n2c(CN3CCN(C(=O)COc4ccc(Cl)cc4)CC3)nc3ccccc3c2=O)c1 | – | – | Active | – | 0 | 0 | 0 | – | 59 | 3.8 | 0.5 | – | – | – | –
8 | C=CCN1CCN(CC(=O)c2ccc(OC(C)C)c(-n3c(CN4CCN(C(=O)COc5ccc(Cl)cc5)CC4)nc4ccccc4c3=O)c2)CC1 | – | – | inactive | – | 0 | 0 | 2.4 | 37.3 | – | – | – | – | 1.5 | 195 | –
9 | COc1ccc(CN2CCN(CC(=O)c3ccc(OC(C)C)c(-n4c(CN5CCN(C(=O)COc6ccc(Cl)cc6)CC5)nc5ccccc5c4=O)c3)CC2)cc1 | – | – | Active | – | 0.2 | 0.3 | 2.8 | 29.7 | – | – | – | – | 13 | 13 | –
10 | CC(C)Oc1ccc(C(=O)C(F)(F)F)cc1-n1c(CN2CCN(C(=O)COc3ccc(Cl)cc3)CC2)nc2ccccc2c1=O | – | – | – | – | – | – | – | – | – | – | – | – | 8 | 210 | –
11 | CC(C)Oc1ccc(C(=O)CN2CCN(C)CC2)cc1-n1c(CN2CCN(C(=O)COc3ccc(Cl)cc3)CC2)nc2ccccc2c1=O | – | – | inactive | – | – | – | – | – | – | – | – | – | 1.9 | 474 | –
12 | CC(C)Oc1ccc(CN2CCNCC2)cc1-n1c(CN2CCN(C(=O)COc3ccc(Cl)cc3)CC2)nc2ccccc2c1=O | 1400 (≈ 903 µg/mL) | 55.3 | – | – | 59.4 | 66.6 | 79.2 | – | 1200 | – | – | – | 3 | 300 | 800
